Data reported in the supplement of paper PMC10307832.

Assays:
Assay in all cases: relative viability (nuclei count vs DMSO), 5 days (fraction); higher = more cells survive
NCI-H522 = system: NCI-H522
Method in brief: (§1)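 Lung cancer cell lines in 1536-well plates got either a single drug or a fixed anchor-drug dose together with five library-drug doses (not always all listed) in √10 steps, by pin tool, on the day after seeding. Nuclei were counted after 5 days, and relative viability is the treated-to-vehicle ratio of nuclei counts. Values are medians of duplicate plates.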

CAL-12T = system: CAL-12T
Method in brief: as §1

NCI-H1944 = system: NCI-H1944
Method in brief: as §1

NCI-H1395 = system: NCI-H1395
Method in brief: as §1

LC-2-ad = system: LC-2-ad
Method in brief: as §1

NCI-H1734 = system: NCI-H1734
Method in brief: as §1

HCC-15 = system: HCC-15
Method in brief: as §1

LU99A = system: LU99A
Method in brief: as §1

COR-L 105 = system: COR-L 105
Method in brief: as §1

PC-14 = system: PC-14
Method in brief: as §1

NCI-H1975 = system: NCI-H1975
Method in brief: as §1

H3255 = system: H3255
Method in brief: as §1

NCI-H1666 = system: NCI-H1666
Method in brief: as §1

PC-3 [JPC-3] = system: PC-3 [JPC-3]
Method in brief: as §1

HCC-366 = system: HCC-366
Method in brief: as §1

NCI-H520 = system: NCI-H520
Method in brief: as §1

NCI-H3122 = system: NCI-H3122
Method in brief: as §1

NCI-H647 = system: NCI-H647
Method in brief: as §1

NCI-H1563 = system: NCI-H1563
Method in brief: as §1

NCI-H661 = system: NCI-H661
Method in brief: as §1

NCI-H838 = system: NCI-H838
Method in brief: as §1

NCI-H1993 = system: NCI-H1993
Method in brief: as §1

SK-LU-1 = system: SK-LU-1
Method in brief: as §1

HARA = system: HARA
Method in brief: as §1

NCI-H2228 = system: NCI-H2228
Method in brief: as §1

## CCCCCCCCCCCC1=C(O)C(=O)C=C(O)C1=O [Embelin] + Cc1nc(Nc2ncc(C(=O)Nc3c(C)cccc3Cl)s2)cc(N2CCN(CCO)CC2)n1 [Dasatinib] (partner 0.075 µM)
NCI-H522; first compound 0.08 µM
  relative viability: 0.849
NCI-H522; first compound 0.8 µM
  relative viability: 0.914
NCI-H522; first compound 2.53 µM
  relative viability: 1.02
NCI-H522; first compound 8 µM
  relative viability: 0.859
CAL-12T; first compound 0.08 µM
  relative viability: 0.414
CAL-12T; first compound 0.8 µM
  relative viability: 0.522
CAL-12T; first compound 2.53 µM
  relative viability: 0.481
CAL-12T; first compound 8 µM
  relative viability: 0.539
NCI-H1944; first compound 0.08 µM
  relative viability: 0.2
NCI-H1944; first compound 0.8 µM
  relative viability: 0.221
NCI-H1944; first compound 2.53 µM
  relative viability: 0.245
NCI-H1944; first compound 8 µM
  relative viability: 0.195
NCI-H1395; first compound 0.08 µM
  relative viability: 0.393
NCI-H1395; first compound 0.8 µM
  relative viability: 0.484
NCI-H1395; first compound 2.53 µM
  relative viability: 0.404
NCI-H1395; first compound 8 µM
  relative viability: 0.352
LC-2-ad; first compound 0.08 µM
  relative viability: 0.596
LC-2-ad; first compound 0.8 µM
  relative viability: 0.837
LC-2-ad; first compound 2.53 µM
  relative viability: 0.823
LC-2-ad; first compound 8 µM
  relative viability: 0.412
NCI-H1734; first compound 0.08 µM
  relative viability: 0.424
NCI-H1734; first compound 0.8 µM
  relative viability: 0.53
NCI-H1734; first compound 2.53 µM
  relative viability: 0.514
NCI-H1734; first compound 8 µM
  relative viability: 0.419
HCC-15; first compound 0.08 µM
  relative viability: 0.592
HCC-15; first compound 0.8 µM
  relative viability: 0.628
HCC-15; first compound 2.53 µM
  relative viability: 0.711
HCC-15; first compound 8 µM
  relative viability: 0.582
LU99A; first compound 0.08 µM
  relative viability: 0.572
LU99A; first compound 0.8 µM
  relative viability: 0.759
LU99A; first compound 2.53 µM
  relative viability: 0.643
LU99A; first compound 8 µM
  relative viability: 0.515
COR-L 105; first compound 0.08 µM
  relative viability: 0.339
COR-L 105; first compound 0.8 µM
  relative viability: 0.544
COR-L 105; first compound 2.53 µM
  relative viability: 0.355
COR-L 105; first compound 8 µM
  relative viability: 0.33
PC-14; first compound 0.08 µM
  relative viability: 0.257
PC-14; first compound 0.8 µM
  relative viability: 0.396
PC-14; first compound 2.53 µM
  relative viability: 0.246
PC-14; first compound 8 µM
  relative viability: 0.315
NCI-H1975; first compound 0.08 µM
  relative viability: 0.31
NCI-H1975; first compound 0.8 µM
  relative viability: 0.396
NCI-H1975; first compound 2.53 µM
  relative viability: 0.502
NCI-H1975; first compound 8 µM
  relative viability: 0.333
H3255; first compound 0.08 µM
  relative viability: 0.355
H3255; first compound 0.8 µM
  relative viability: 0.378
H3255; first compound 2.53 µM
  relative viability: 0.298
H3255; first compound 8 µM
  relative viability: 0.456
NCI-H1666; first compound 0.08 µM
  relative viability: 0.793
NCI-H1666; first compound 0.8 µM
  relative viability: 0.88
NCI-H1666; first compound 2.53 µM
  relative viability: 0.839
NCI-H1666; first compound 8 µM
  relative viability: 0.852
PC-3 [JPC-3]; first compound 0.08 µM
  relative viability: 1.02
PC-3 [JPC-3]; first compound 0.8 µM
  relative viability: 1.05
PC-3 [JPC-3]; first compound 2.53 µM
  relative viability: 1.12
PC-3 [JPC-3]; first compound 8 µM
  relative viability: 0.966
HCC-366; first compound 0.08 µM
  relative viability: 0.593
HCC-366; first compound 0.8 µM
  relative viability: 0.688
HCC-366; first compound 2.53 µM
  relative viability: 0.984
HCC-366; first compound 8 µM
  relative viability: 0.557
NCI-H520; first compound 0.08 µM
  relative viability: 0.245
NCI-H520; first compound 0.8 µM
  relative viability: 0.188
NCI-H520; first compound 2.53 µM
  relative viability: 0.307
NCI-H520; first compound 8 µM
  relative viability: 0.132
NCI-H3122; first compound 0.08 µM
  relative viability: 0.823
NCI-H3122; first compound 0.8 µM
  relative viability: 0.922
NCI-H3122; first compound 2.53 µM
  relative viability: 0.853
NCI-H3122; first compound 8 µM
  relative viability: 0.829
NCI-H647; first compound 0.08 µM
  relative viability: 0.214
NCI-H647; first compound 0.8 µM
  relative viability: 0.242
NCI-H647; first compound 2.53 µM
  relative viability: 0.123
NCI-H647; first compound 8 µM
  relative viability: 0.14
NCI-H1563; first compound 0.08 µM
  relative viability: 0.475
NCI-H1563; first compound 0.8 µM
  relative viability: 0.447
NCI-H1563; first compound 2.53 µM
  relative viability: 0.405
NCI-H1563; first compound 8 µM
  relative viability: 0.387
NCI-H661; first compound 0.08 µM
  relative viability: 0.852
NCI-H661; first compound 0.8 µM
  relative viability: 1.08
NCI-H661; first compound 2.53 µM
  relative viability: 0.99
NCI-H661; first compound 8 µM
  relative viability: 0.703
NCI-H838; first compound 0.08 µM
  relative viability: 0.312
NCI-H838; first compound 0.8 µM
  relative viability: 0.316
NCI-H838; first compound 2.53 µM
  relative viability: 0.248
NCI-H838; first compound 8 µM
  relative viability: 0.224
NCI-H1993; first compound 0.08 µM
  relative viability: 0.641
NCI-H1993; first compound 0.8 µM
  relative viability: 0.602
NCI-H1993; first compound 2.53 µM
  relative viability: 0.535
NCI-H1993; first compound 8 µM
  relative viability: 0.509
SK-LU-1; first compound 0.08 µM
  relative viability: 0.192
SK-LU-1; first compound 0.8 µM
  relative viability: 0.191
SK-LU-1; first compound 2.53 µM
  relative viability: 0.199
SK-LU-1; first compound 8 µM
  relative viability: 0.138
HARA; first compound 0.08 µM
  relative viability: 0.25
HARA; first compound 0.8 µM
  relative viability: 0.329
HARA; first compound 2.53 µM
  relative viability: 0.279
HARA; first compound 8 µM
  relative viability: 0.272
NCI-H2228; first compound 0.08 µM
  relative viability: 0.503
NCI-H2228; first compound 0.8 µM
  relative viability: 0.618
NCI-H2228; first compound 2.53 µM
  relative viability: 0.592
NCI-H2228; first compound 8 µM
  relative viability: 0.396
